This note sets out measurements from US12617795B2, “Substituted 6,7-dihydro-5H-pyrrolo[3,4-d]pyrimidines, 5,7-dihydrofuro[3,4-d]pyrimidines, and pyrido[2,3-d]pyrimidines as KCC2 modulators” (Astrazeneca AB, priority 2020, dated 2026).

In general, EC50 refers to the midpoint of the concentration-response curve. Lower therefore signals an effect from little substance.

Molecules are shown by their SMILES.

The assay has as its target T1, KCC2 (Homo sapiens, UniProt Q9H2X9).
T1 construct: expressed in transfected cells; host or cells: HEK293 cells electroporated (Maxcyte STX) with the pcDNA3.1 KCC2 plasmid
T1 sequence (Q9H2X9 1-1139): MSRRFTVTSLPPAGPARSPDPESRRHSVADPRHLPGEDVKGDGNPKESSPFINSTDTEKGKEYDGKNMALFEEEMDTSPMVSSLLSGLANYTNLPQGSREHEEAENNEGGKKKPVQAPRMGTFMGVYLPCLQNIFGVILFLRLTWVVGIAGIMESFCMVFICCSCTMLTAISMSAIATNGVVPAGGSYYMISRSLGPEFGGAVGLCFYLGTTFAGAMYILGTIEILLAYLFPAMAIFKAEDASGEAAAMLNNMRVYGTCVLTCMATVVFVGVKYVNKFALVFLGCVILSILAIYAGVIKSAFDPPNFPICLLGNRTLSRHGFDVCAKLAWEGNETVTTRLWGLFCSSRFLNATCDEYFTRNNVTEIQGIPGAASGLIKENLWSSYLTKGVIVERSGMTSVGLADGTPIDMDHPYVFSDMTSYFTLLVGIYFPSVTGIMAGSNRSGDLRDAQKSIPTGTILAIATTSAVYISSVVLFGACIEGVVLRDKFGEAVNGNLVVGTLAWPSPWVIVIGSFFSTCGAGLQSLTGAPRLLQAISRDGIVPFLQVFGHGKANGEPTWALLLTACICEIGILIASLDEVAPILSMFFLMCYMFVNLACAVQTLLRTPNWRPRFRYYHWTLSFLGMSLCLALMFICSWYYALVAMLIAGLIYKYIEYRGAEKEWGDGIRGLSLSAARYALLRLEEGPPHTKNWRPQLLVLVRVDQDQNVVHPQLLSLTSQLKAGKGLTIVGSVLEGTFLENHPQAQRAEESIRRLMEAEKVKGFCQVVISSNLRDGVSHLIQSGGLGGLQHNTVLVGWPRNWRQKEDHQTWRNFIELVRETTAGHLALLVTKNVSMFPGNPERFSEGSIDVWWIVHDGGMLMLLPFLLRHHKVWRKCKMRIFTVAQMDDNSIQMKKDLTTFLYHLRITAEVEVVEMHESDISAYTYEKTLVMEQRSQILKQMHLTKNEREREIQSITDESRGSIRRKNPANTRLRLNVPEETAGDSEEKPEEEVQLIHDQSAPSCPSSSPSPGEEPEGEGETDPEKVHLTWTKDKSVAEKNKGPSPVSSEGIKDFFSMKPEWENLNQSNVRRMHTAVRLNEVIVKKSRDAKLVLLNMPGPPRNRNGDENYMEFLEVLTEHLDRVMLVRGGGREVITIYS
The experiment in a line: KCC2 thallium transport FLIPR-based assay (Tl+ influx in HEK293 cells expressing KCC2). In kind it is cell-based. The following applies: 90 min compound incubation at RT, thallium flux at 120 s used to determine EC50. Summed up: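 Transient electroporation of codon-optimised human KCC2 into HEK293 cells, plated and cultured 48 h before dye loading (1 h, RT). Compounds run as a 12-point 1:2 series from 100 μM top, 90 min RT in buffer containing bumetanide; Tl+ flux read by FLIPR after stimulus addition, 1 s intervals over 120 s, with the 120 s signal used for EC50.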
The compound `C#CCCC1(CCOc2ccc(-c3ccc(Nc4nc(N5CCOCC5)nc5c4CN(C(C)C)C5=O)cc3)cc2)N=N1` [Example 70, 4-[(4′-{2-[3-(but-3-yn-1-yl)-3H-diaziren-3-yl]ethoxy}[1,1′-biphenyl]-4-yl)amino]-2-(morpholin-4-yl)-6-(propan-2-yl)-5,6-dihydro-7H-pyrrolo[3,4-d]pyrimidin-7-one] came in with an EC50 of 1.83 µM. In the case of `CC(C)c1ccc(Nc2nc(N3CCSCC3)nc3c2CN(C(C)C)C3=O)cc1` [Example 5, 6-(propan-2-yl)-4-{[4-(propan-2-yl)phenyl]amino}-2-(thiomorpholin-4-yl)-5,6-dihydro-7H-pyrrolo[3,4-d]pyrimidin-7-one], a half-maximal effect (EC50) was put at 3.77 µM. `CC(C)N1Cc2c(Nc3ccc(C4CCCCC4)cc3)nc(-c3ccncc3)nc2C1=O` [Example 46, 4-[(4-cyclohexylphenyl)amino]-6-(propan-2-yl)-2-(pyridin-4-yl)-5,6-dihydro-7H-pyrrolo[3,4-d]pyrimidin-7-one] displayed a concentration for a half-maximal effect (EC50) of 1.29 µM.

On to `CCCCCCCOc1ccc(-c2ccc(Nc3nc(N4CCOC(C5CC5)C4)nc4c3CN(C(C)C)C4=O)cc2)cc1` (stereo not shown) [Example 53, 2-(2-cyclopropylmorpholin-4-yl)-4-{[4′-(heptyloxy)[1,1′-biphenyl]-4-yl]amino}-6-(propan-2-yl)-5,6-dihydro-7H-pyrrolo[3,4-d]pyrimidin-7-one], for which the concentration giving a half-maximal response (EC50) is 0.215 µM. The figure for `CC(C)N1Cc2c(Nc3ccc(C4CCCCC4)cc3)nc(N3CCSC3)nc2C1=O` [Example 19, 4-[(4-cyclohexylphenyl)amino]-6-(propan-2-yl)-2-(1,3-thiazolidin-3-yl)-5,6-dihydro-7H-pyrrolo[3,4-d]pyrimidin-7-one] is 2.04 µM; for `CC(C)N1Cc2c(Nc3ccc(C4CCCCC4)cc3)nc(N3CCO[C@H](C)C3)nc2C1=O` [Example 13, 4-[(4-cyclohexylphenyl)amino]-2-[(2R)-2-methylmorpholin-4-yl]-6-(propan-2-yl)-5,6-dihydro-7H-pyrrolo[3,4-d]pyrimidin-7-one] it is 1.71 µM; for `C#CCN1Cc2c(Nc3ccc(C(C)C)cc3)nc(N3CCOCC3)nc2C1=O` [Example 76, 2-(morpholin-4-yl)-4-{[4-(propan-2-yl)phenyl]amino}-6-(prop-2-yn-1-yl)-5,6-dihydro-7H-pyrrolo[3,4-d]pyrimidin-7-one] it is 6.89 µM. The value for `CC(C)c1ccc(Nc2nc(N3CCOCC3)nc3c2CN(C(C)C)C3=O)cc1` [Example 86, 2-(morpholin-4-yl)-6-(propan-2-yl)-4-{[4-(propan-2-yl)phenyl]amino}-5,6-dihydro-7H-pyrrolo[3,4-d]pyrimidin-7-one] was 5.83 µM; that for `CN(C)C(=O)CN1Cc2nc(C3=CCOCC3)nc(Nc3ccc(C4CCCCC4)cc3)c2C1` [Example 111, 2-{4-[(4-cyclohexylphenyl)amino]-2-(3,6-dihydro-2H-pyran-4-yl)-5,7-dihydro-6H-pyrrolo[3,4-d]pyrimidin-6-yl}-N,N-dimethylacetamide] was 5.35 µM. Compound `C[C@@H]1CN(c2nc(Nc3ccc(C4CCCCC4)cc3)c3cc(N)cnc3n2)CCO1` [Example 108, (R)—N4-(4-cyclohexylphenyl)-2-(2-methylmorpholino)pyrido[2,3-d]pyrimidine-4,6-diamine] registered an EC50 of 1.97 µM. Take `CC(C)N1Cc2c(Nc3ccc(C4CCCCC4)cc3)nc(N(C)CCc3ncon3)nc2C1=O` [Example 23, 4-[(4-cyclohexylphenyl)amino]-2-{methyl[2-(1,2,4-oxadiazol-3-yl)ethyl]amino}-6-(propan-2-yl)-5,6-dihydro-7H-pyrrolo[3,4-d]pyrimidin-7-one]: a half-maximal response (EC50) required 2.92 µM. In the case of `CC(C)N1Cc2c(Nc3ccc(C4CCCCC4)cc3)nc(N3CCOCC3)nc2C1=O` [Example 11, 4-[(4-cyclohexylphenyl)amino]-2-(morpholin-4-yl)-6-(propan-2-yl)-5,6-dihydro-7H-pyrrolo[3,4-d]pyrimidin-7-one], a half-maximal response (EC50) required 2.01 µM. In turn, `CC(C)N1Cc2c(Nc3ccc(C4CCCCC4)cc3)nc(N(C)CCc3ccccn3)nc2C1=O` [Example 37, 4-[(4-cyclohexylphenyl)amino]-2-{methyl[2-(pyridin-2-yl)ethyl]amino}-6-(propan-2-yl)-5,6-dihydro-7H-pyrrolo[3,4-d]pyrimidin-7-one] had an EC50 of 6.3 µM.

Regarding `CC(C)N1Cc2c(Nc3ccc(C4CCCCC4)cc3)nc(-c3cnco3)nc2C1=O` [Example 48, 4-[(4-cyclohexylphenyl)amino]-2-(1,3-oxazol-5-yl)-6-(propan-2-yl)-5,6-dihydro-7H-pyrrolo[3,4-d]pyrimidin-7-one], the concentration for a half-maximal effect (EC50) is 6.3 µM.

In turn, `CC(C)N1Cc2c(Nc3ccc(C(F)(F)C(F)(F)F)cc3)nc(N3CCOC(C4CC4)C3)nc2C1=O` (stereo not shown) [Example 58, 2-(2-cyclopropylmorpholin-4-yl)-4-{[4-(pentafluoroethyl)phenyl]amino}-6-(propan-2-yl)-5,6-dihydro-7H-pyrrolo[3,4-d]pyrimidin-7-one] displayed a concentration giving a half-maximal response (EC50) of 3.78 µM. The compound `CC(C)c1ccc(Nc2nc(N3C[C@H](C)O[C@@H](C)C3)nc3c2CN(C(C)C)C3=O)cc1` [Example 8, 2-[(2S,6S)-2,6-dimethylmorpholin-4-yl]-6-(propan-2-yl)-4-{[4-(propan-2-yl)phenyl]amino}-5,6-dihydro-7H-pyrrolo[3,4-d]pyrimidin-7-one] had an EC50 of 5.43 µM.

Regarding `CC(C)N1Cc2c(Nc3ccc(C4CCC4)cc3)nc(N3CCOCC3)nc2C1=O` [Example 63, 4-[(4-cyclobutylphenyl)amino]-2-(morpholin-4-yl)-6-(propan-2-yl)-5,6-dihydro-7H-pyrrolo[3,4-d]pyrimidin-7-one], the EC50 was found to be 5.71 µM.

On to `CN1CCC(N2Cc3nc(N4CCOC(C5CC5)C4)nc(Nc4ccc(C5CCCCC5)cc4)c3C2)CC1` (stereo not shown) [Example 112, N-(4-cyclohexylphenyl)-2-(2-cyclopropylmorpholino)-6-(1-methylpiperidin-4-yl)-6,7-dihydro-5H-pyrrolo[3,4-d]pyrimidin-4-amine], for which the midpoint of the response, the EC50, lay at 3.57 µM. In turn, `CC(C)N1Cc2c(Nc3ccc(-c4ccsc4)cc3)nc(N3CCOCC3)nc2C1=O` [Example 114, 2-(morpholin-4-yl)-6-(propan-2-yl)-4-{[4-(thiophen-3-yl)phenyl]amino}-5,6-dihydro-7H-pyrrolo[3,4-d]pyrimidin-7-one] gave an EC50 of 7.3 µM. This EC50 lies about 2-fold higher than the previous one.

Compound `COc1cnc2nc(N3CCO[C@H](C)C3)nc(Nc3ccc(C4CCCCC4)cc3)c2c1` [Example 106, (R)—N-(4-cyclohexylphenyl)-6-methoxy-2-(2-methylmorpholino) pyrido[2,3-d]pyrimidin-4-amine] had a concentration for a half-maximal effect (EC50) of 1.85 µM. This EC50 is about 3.9-fold lower than that of the compound before. Consider `CC(C)N1Cc2c(Nc3ccc(C4CCCCC4)cc3)nc(-c3cnn(C)c3)nc2C1=O` [Example 47, 4-[(4-cyclohexylphenyl)amino]-2-(1-methyl-1H-pyrazol-4-yl)-6-(propan-2-yl)-5,6-dihydro-7H-pyrrolo[3,4-d]pyrimidin-7-one], for which the EC50 stood at 3.16 µM. This EC50 is about 1.7-fold higher than that of the compound before.

On to `COc1cc(-c2nc(Nc3ccc(C4CCCCC4)cc3)c3c(n2)C(=O)N(C(C)C)C3)ccn1` [Example 43, 4-[(4-cyclohexylphenyl)amino]-2-(2-methoxypyridin-4-yl)-6-(propan-2-yl)-5,6-dihydro-7H-pyrrolo[3,4-d]pyrimidin-7-one], for which a half-maximal effect (EC50) was put at 0.738 µM. This EC50 lies about 4.3-fold lower than the previous one. Compound `CC(C)N1Cc2c(Nc3ccc(C4CCCCC4)cc3)nc(N3CCOC(CCO)C3)nc2C1=O` (stereo not shown) [Example 27, 4-[(4-cyclohexylphenyl)amino]-2-[2-(2-hydroxyethyl)morpholin-4-yl]-6-(propan-2-yl)-5,6-dihydro-7H-pyrrolo[3,4-d]pyrimidin-7-one] returned an EC50 of 3.58 µM. For the compound `C[C@@H]1CN(c2nc(Nc3ccc(C4CCCCC4)cc3)c3c(n2)C(=O)N(CCCN(C)C)C3)CCO1` [Example 72, (R)-4-((4-cyclohexylphenyl)amino)-6-(3-(dimethylamino)propyl)-2-(2-methylmorpholino)-5,6-dihydro-7H-pyrrolo[3,4-d]pyrimidin-7-one], the EC50 is 1.53 µM.

For `Cc1ccccc1-c1ccc(Nc2nc(C3=CCOCC3)nc3c2CN(C(C)C)C3=O)cc1` [Example 80, 2-(3,6-dihydro-2H-pyran-4-yl)-6-isopropyl-4-((2′-methyl-[1,1′-biphenyl]-4-yl)amino)-5,6-dihydro-7H-pyrrolo[3,4-d]pyrimidin-7-one], a half-maximal response (EC50) required 1.8 µM.
